# Assay results: US20230087766A1, “METHODS OF REACTIVATING LATENT HUMAN IMMUNODEFICIENCY VIRUS AND RELATED COMPOSITIONS” (priority 2017, published 2023)
# “Also recorded” adds a separate entry of the source.
# Legend:
# Format in all cases: cell-based
# latent HIV in U1 cells [1] = assay: Reactivation of latent HIV in U1 cells by RT-qPCR; details: Na-Cro at 40 mM
# Procedure: (§1) Cell culture: J-Lat Al cells (derived from Jurkat cells harboring HIV LTR-Tat-GFP gene) and U1 cells (promonocytic cell line harboring one copy of HIV genome with defective tat gene) were obtained from NIH AIDS Reagent Program and cultured at 37° C. with 5% CO2 in RPM11640 medium containing 10% FBS and 1% penicillin-streptomycin as previously described (see G. Jiang, et al. PLoS Pathogens 11, e1005066 (2015)).
# (§2) For inhibiting ACSS2 and crotonylation, cells were pretreated with ACSS2 inhibitor, AR12 (SELLECK CHEMICALS™, Houston, Tex.), for 30 minutes, followed by Na-Cro treatment for 4 or 18 hours.
# Real-Time PCR Analysis: HIV gene expression was measured using real-time PCR in J-Lat Al cells treated with LRAs. Total nucleic acid was extracted using RNEASY™ Kit, genomic DNA digested using DNase I and total RNA reverse transcribed using Superscript III to synthesize cDNA. […] […] TAMRA-3′ (SEQ ID NO:3).
# latent HIV in U1 cells [2] = assay: p24 ELISA in U1 cells; details: day 6
# Procedure: as §1, §2
# J-Lat A1 cells = assay: Cellular viability by flow cytometry of live/dead staining; details: Na-Cro 10 mM to 40 mM
# Procedure: An increased concentration of Na-Cro was added in the J-Lat A1 cells, and cellular viability was evaluated by flow cytometry of live/dead staining.
# [3] = tested on: histone tails and transcription factors in J-Lat A1 cells; assay: Western blot of global histone modifications and transcription factors
# Source text: FIG. 2 is a series of images and graphs showing that histone crotonylation by sodium crotonate addition re-programs histone tails at the HIV LTR. Panel A illustrates that Na-Cro addition increased global expression of H3K4Cro, H3K4Ac, and H3K18Ac while decreasing H3K27Me3. Panel B illustrates expression of transcription factors after Na-Cro addition in J-Lat Al cells. Panels C-E illustrate that Na-Cro addition re-programmed histone tails at the HIV LTR. Chromatin immunoprecipitation (ChIP) assay was performed by using anti-H3K4Cr, anti-H3K4Ac, and anti-H3K27Me3 antibodies after J-Lat Al cells were treated with 30 mM Na-Cro for 4 hours. PCR primers were specific for the HIV LTR region.
# Western Blot Analysis: Western blot analysis was performed by using one million cells treated with LRAs for 6 or 18 hours. Whole cell lysates were prepared using RIPA buffer. Nuclear Extracts were prepared using EPIQUIK™ Total Histone Extraction Kit ([…]™, Farmingdale N.Y.). Antibodies (CELL SIGNALING TECHNOLOGY®, Boston, Mass.) for Cyclin T1, CDK9, CDK9-P, NF-kB, GAPDH, and total H3 were used to detect protein expression under different drug conditions. Antibodies for H3K4Cro (PTM BIOLABS™, Chicago, Ill.), H3K27Me3 (CELL SIGNALING TECHNOLOGY®), H3K4Ac (CELL SIGNALING TECHNOLOGY®), and H3K18Ac (CELL SIGNALING TECHNOLOGY®) were used to measure histone modifications.
# [4] = tested on: latent HIV in primary CD4+ T cells from HIV-infected patients under suppressive ART; assay: HIV transcription by ddPCR in primary CD4+ T cells from HIV-infected patients; details: primary CD4+ T cells of 6 patients; 40 mM Na-Cro or 12 nM PEP005; 6 hours; ddPCR
# Procedure: Panels A-C illustrate that primary CD4+ T cells were treated with […] PMA 2 plus 2 μg/ml ionomycin, 12 nM PEP005, 40 mM Na-Cro, or 12 nM PEP005 combined with 40 mM Na-Cro for 6 hours. Viral transcription from total RNA was analyzed by RT-ddPCR with primers targeting initiation (TAR region) (see panel A), elongation (long LTR) (see panel B), or full transcription (poly A region) (see panel C) of the HIV genome. Panel D illustrates a working model of epigenetic regulation of HIV latency/transcription by histone crotonylation.
# To validate this finding in the ex vivo primary CD4+ T cells from patients the peripheral blood samples from 6 HIV-infected patients under suppressive ART were obtained. They had undetectable plasma viral load (<20 copies/ml plasma) and >400 CD4+ T cell number per […] (see Table 1). Primary CD4+ T cells were treated with PMA/Ionomycin, PEP005, Na-Cro, or PEP005 in combination with Na-Cro for 6 hours. HIV transcription following reactivation was measured by digital droplet PCR (ddPCR) targeting TAR region (initiation), long LTR region (elongation), or Poly A region (full transcription) of HIV genome (see G. Jiang, et al. PLoS pathogens 11, e1005066 (2015); P. Kaiser, et al. Journal of virological methods 242, 1-8 (2017); and L. Shan, et al. Journal of Virology 87, 6521-6525 (2013)).
# Primary CD4+ T Cell Isolation, Treatment, and Digital Droplet PCR Assays: Peripheral blood samples were obtained from HIV-infected individuals (age ranging from 46-62 years old) on suppressive ART for >8 years (n=6). The plasma viral loads were below the detective level (<20 copies/ml plasma) and the average CD4+ T cell number was 664.4±180.5 cells/ml. The primary CD4+ T cells were isolated using the EASYSEP™ kit ([…]™ Technologies Inc., Vancouver, BC, Canada) as previously described (see G. Jiang, et al. PLoS pathogens 11, el 005066 (2015) and G. Jiang, et al. AIDS 28, 1555-1566 (2014)). The purified CD4+ T cells were plated at a density of 0.5-1×10^6 cells and treated with Control, 200 ng/ml PMA plus 2 μM lonomycin, 12 nM PEP005, 40 mM Na-Cro, or 12 nM PEP005 plus 40 mM Na-Cro for 6 hours. Cell pellets were collected for RNA isolation. Initiation, elongation, or full transcription of HIV was analyzed with ddPCR assays as reported before (see G. Jiang, et al. PLoS pathogens 11, e1005066 (2015); P. Kaiser, et al. Journal of virological methods 242, 1-8 (2017); and L. Shan, et al. Journal of virology 87, 6521-6525 (2013)).
smiles,measurement,setting,value
"C/C=C/C(=O)[O-].[Na+] [Na-Cro, sodium crotonate]",increase in viral transcription compared to untreated controls,latent HIV in U1 cells [1],6 fold
same,p24 antigen,latent HIV in U1 cells [2]; 20 mM Na-Cro,over 500 pg/mL
same,p24 antigen,latent HIV in U1 cells [2]; 40 mM Na-Cro,> 2000 pg/mL
same,cell toxicity,J-Lat A1 cells,not toxic to immune cells; also recorded: Minimal cell toxicity
same,expression of transcription factors involved in HIV transcription,[3]; J-Lat A1 cells,did not alter transcription factors that are involved in HIV transcription except a minor induction of CDK9 protein
same,global H3K4 acetylation,[3]; Na-Cro-treated T cells,increased
same,global H3K4 crotonylation,[3]; Na-Cro-treated T cells,increased
same,global H3K18 acetylation,[3]; Na-Cro-treated T cells,increased
same,global H3K27 trimethylation,[3]; Na-Cro-treated T cells,markedly decreased
same,"elongation of HIV transcripts (long LTR), patients responding",[4],all 6 patients
same,"full-length transcription of HIV (poly A region), patients responding",[4],4 of the 6 patients
same,"initiation of HIV transcription (TAR region), patients responding",[4],all 6 patients
